31 molecules from ChEMBL document CHEMBL2029230, “Identification, design and biological evaluation of heterocyclic quinolones targeting Plasmodium falciparum type II NADH:quinone oxidoreductase (PfNDH2)” (J Med Chem, 2012) can be followed below.

A value given as a limit tells only on which side of the number the result lay.

In series [1] the test system is Plasmodium falciparum. The series is described as follows: Antimalarial activity against blood stage forms of Plasmodium falciparum 3D7 infected in human erythrocytes. The format is functional, organism-based.
Series [2] can be described thus: Inhibition of Plasmodium falciparum recombinant NDH2 expressed in Escherichia coli F571 using decyclubiquinone as substrate at 1 min by spectrophotometry.
The subject of series [3] is Plasmodium falciparum. Kind of series: Antimalarial activity against […]-resistant Plasmodium falciparum TM90C2B containing cytochrome-b Y268S mutant. The format is functional, organism-based.
Series [4] is described as follows: Cmax in rat at 20 mg/kg, po. The format is ADME, organism-based. Also noted: dose 20 mg/kg, route oral. The note with it: in vivo.
A short description of series [5]: AUC (0 to t) in rat at 20 mg/kg, po. The format is ADME, organism-based. Details: dose 20 mg/kg, route oral. To be noted: plasma.
Series [6] relates to Plasmodium berghei. Kind of series: Antimalarial activity against Plasmodium berghei NS infected in CD1 mouse assessed as decrease in parasitemia at 20 mg/kg, po administered using DET as vehicle measured on day 4. The format is functional. Also noted: scale not given: the % may be the effect or the level left.
Series [7] deals with Plasmodium berghei. Kind of series: Antimalarial activity against Plasmodium berghei NS infected in po dosed CD1 mouse assessed as decrease in parasitemia measured on day 4. The format is functional. To be noted: 96 h.
Series [8] has as its system Plasmodium falciparum. The series is described as follows: Antimalarial activity against chloroquine-resistant Plasmodium falciparum W2. The format is functional, organism-based.
Series [9] can be described thus: Total clearance in rat at 20 mg/kg, po. To be noted: in vivo. The format is ADME, organism-based. Also noted: dose 20 mg/kg, route oral.
The subject of series [10] is Plasmodium berghei. Kind of series: Antimalarial activity against Plasmodium berghei NS infected in CD1 mouse assessed as decrease in parasitemia at 20 mg/kg, po administered using SSV as vehicle measured on day 4. The format is functional. Also noted: scale not given: the % may be the effect or the level left.
Series [11] is described as follows: Metabolic stability in human liver microsomes assessed as compound remaining at 1 uM after 60 mins. The format is ADME, Microsome. The note with it: read-out: Stability. A general note: Liver microsomes are a subcellular fraction often used to study metabolism.
Series [12] relates to HepG2. Kind of series: Cytotoxicity against human HepG2 cells. The format is cell-based.
Series [13] deals with Liver microsomes. Kind of series: Half life in human liver microsomes at 1 uM. The format is ADME, Microsome.
Series [14] has as its system Rattus norvegicus. Kind of series: Volume of distribution in rat at 20 mg/kg, po. The format is ADME, organism-based. The note with it: in vivo. Also noted: dose 20 mg/kg, route oral.
The nature of series [15]: Half life in rat at 20 mg/kg, po. The note with it: in vivo. Also noted: dose 20 mg/kg, route oral. The format is ADME, organism-based.
The nature of series [16]: Inhibition of Plasmodium falciparum cytochrome b-c1 complex using decylubiquinol as substrate by spectrophotometry.
The nature of series [17]: Tmax in rat at 20 mg/kg, po. The format is ADME, organism-based. Details: dose 20 mg/kg, route oral. To be noted: in vivo.
Series [18] has as its system Plasmodium berghei. Kind of series: Antimalarial activity against Plasmodium berghei NS infected in CD1 mouse assessed as decrease in parasitemia at 20 mg/kg, po administered using Na2CO3 as vehicle measured on day 4. The format is functional. Also noted: scale not given: the % may be the effect or the level left.

For the molecule `Cc1c(-c2ccc(-c3ccc(OCCN4CCOCC4)cc3)nc2)[nH]c2ccccc2c1=O`, the concentration for half-maximal inhibition (IC50) in series [1] was > 1000 nM.

On to `Cc1c(-c2ccc(-c3ccccc3C(F)(F)F)cc2)[nH]c2ccccc2c1=O`, for which the results for the IC50 in series [2] and in [1] were 8.1 nM and 96 nM, respectively.

Turning to `CCOC(=O)c1c(-c2ccc(-c3ccc(Cl)cc3)cc2)[nH]c2ccccc2c1=O`, the IC50 was 220 nM in [1] and 1150 nM in series [3].

Regarding `O=c1c(CO)c(-c2ccc(-c3ccc(OC(F)(F)F)cc3)cc2)[nH]c2ccccc12`, the IC50 in [2] worked out at 69 nM; in series [1] it was 162 nM; in series [3], 361 nM.

Regarding `Cc1c(-c2ccc(-c3ccc(OC(F)(F)F)cc3)nc2)[nH]c2ccccc2c1=O`, the Cmax in series [4] is 3700 ng/mL. Besides, the 50% inhibitory concentration (IC50) in series [2] is 15 nM; in series [1] it was 54 nM; in [3] it was 344 nM; in [8] it was 50 nM; in series [16], 15 nM. The molecule also gave an AUC(0-t) in series [5] of 69.3 µg·h/mL. Moreover, the Activity in [6] is on record as 100%; in series [10], 87.5%. In addition, the ED50 in series [7] stood at 12.8 mg/kg. Further, in series [7], the ED90 stood at 27.3 mg/kg. The molecule also gave a CL/F in series [9] of 4.61 mL/min/kg. Besides, in [11], the remaining at 1 h, 1 µM turned out to be 60%. Also, the cytotoxic concentration (CC50) in series [12] is > 50000 nM. The same molecule registered a t1/2 in [13] of 1.61 h. In addition, the Vd in [14] worked out at 3.9708 L/kg. Also, the half-life in series [15] was 9.9 h. Also, in series [17], the Tmax turned out to be 7 h.

Take `Cc1c(-c2ccc(-c3ccc(OC(F)(F)F)cc3)nc2)[nH]c2ccc(Cl)cc2c1=O`: the IC50 in series [1] is 298 nM; in [3], 410 nM.

As for `Cc1c(-c2ccc(-c3ccc(OC(F)(F)F)cc3)nc2)[nH]c2cc(F)ccc2c1=O`, the IC50 was 4.2 nM in series [2], 75 nM in [1], 70 nM in [8] and 26.8 nM in series [16].

With `Cc1c(-c2ccc(-c3ccc(OC(F)(F)F)cc3)nc2)[nH]c2cc(F)cc(F)c2c1=O`, the half-maximal inhibitory concentration (IC50) in series [2] worked out at 2.6 nM; in series [1], 286 nM.

On to `Cc1c(-c2ccc(-c3ccc(C(F)(F)F)cc3)nc2)[nH]c2ccccc2c1=O`, for which the figures for the IC50 in series [2], in series [1] and in series [3] were 13.9 nM, 102 nM and 314 nM, respectively.

As to `Cc1c(-c2ccc(-c3ccc(F)cc3F)nc2)[nH]c2ccccc2c1=O`, the half-maximal inhibitory concentration (IC50) came to 88.6 nM in series [2] and 219 nM in [1].

With `Cc1c(-c2ccc(-c3ccccc3C(F)(F)F)nc2)[nH]c2ccccc2c1=O`, the IC50 was 352 nM in [2], 109 nM in [1], 381 nM in [3] and 88 nM in [8].

`Cc1c(-c2ccc(-c3ccccc3F)nc2)[nH]c2ccccc2c1=O`: the IC50 in series [2] came to 131 nM; in [1], 151 nM; in series [3], 324 nM; in series [8], 120 nM.

For `O=c1c(CO)c(-c2ccc(-c3ccc(OC(F)(F)F)cc3)nc2)[nH]c2ccccc12`, the IC50 amounted to 407 nM in [2] and 103 nM in series [1].

Turning to `Cc1c(-c2ccc(-c3ccc(C(F)(F)F)nc3)nc2)[nH]c2ccccc2c1=O`, the IC50 in series [1] came to 370 nM; in [8], 329 nM.

Turning to `Cc1c(-c2ccc(Oc3ccc(OC(F)(F)F)cc3)nc2)[nH]c2ccccc2c1=O`, the IC50 in [2] was 110 nM; in series [1], 40 nM; in series [8] it was 50 nM.

With `Cc1c(-c2ccc(Oc3ccc(F)cc3)nc2)[nH]c2ccccc2c1=O`, the IC50 in [2] came out at 588 nM; in series [1], 279 nM.

Turning to `Cc1c(-c2ccc(Cc3ccc(C(F)(F)F)nc3)cc2F)[nH]c2ccccc2c1=O`, the IC50 stood at 136 nM in series [1] and 67 nM in [8].

As to `Cc1c(-c2ccc(CN3CCOCC3)cc2)[nH]c2ccccc2c1=O`, the values for the IC50 in [1] and in series [8] were 32 nM and 3070 nM, respectively.

Take `Cc1c(-c2ccc(OCCn3ccnc3)cc2)[nH]c2ccccc2c1=O`: in [1], the IC50 was > 1000 nM.

As for `Cc1c(-c2ccc(-c3cnn(CCN4CCOCC4)c3)cc2)[nH]c2ccccc2c1=O`, the IC50 in [1] was > 1000 nM.

Turning to `Cc1c(-c2ccc(-c3cnn(CCN4CCCCC4)c3)cc2)[nH]c2ccccc2c1=O`, in [1], the concentration for half-maximal inhibition (IC50) was > 1000 nM.

In the case of `Cc1c(-c2ccc(-c3cccc(OCCN4CCOCC4)c3)nc2)[nH]c2ccccc2c1=O`, in series [1], the IC50 is > 1000 nM.

In the case of `Cc1c(-c2ccc(-c3cccc(OCCN4CCCCC4)c3)nc2)[nH]c2ccccc2c1=O`, the IC50 in series [1] is > 1000 nM.

The molecule `Cc1c(-c2ccc(-c3ccc(OCCN4CCCCC4)cc3)nc2)[nH]c2ccccc2c1=O` displayed a half-inhibitory concentration (IC50) in series [1] of 600 nM.

For `Cc1c(-c2ccc(CN3CCN(Cc4ccc(OC(F)(F)F)cc4)CC3)nc2)[nH]c2ccccc2c1=O`, the IC50 in series [1] turned out to be 679 nM.

For the molecule `Cc1c(-c2ccc(-c3ccc(OC(F)(F)F)cc3)nc2)[nH]c2ccccc2c1=O.O=P(O)(O)O`, in [7], the ED50 turned out to be 1.87 mg/kg and the ED90 turned out to be 4.72 mg/kg.

Turning to `Cc1c(-c2ccc(-c3ccc(OC(F)(F)F)cc3)nc2)nc2ccccc2c1OP(=O)(O)O`, in series [18], the Activity is 100%.

`Cc1c(-c2ccc(-c3ccc(OC(F)(F)F)cc3)nc2)nc2ccccc2c1OC(=O)N1CCOCC1` gave a Cmax in [4] of 8100 ng/mL. In addition, the AUC(0-t) in series [5] was 167 µg·h/mL. The CL/F in [9] is 1.63 mL/min/kg. In [10], the Activity was 100%. This molecule came in with a Vd in [14] of 2.8756 L/kg. Moreover, the half-life in series [15] is 20.3 h. Moreover, the Tmax in series [17] amounted to 7 h.

Turning to `CO[C@H]1O[C@@H]2O[C@@]3(C)CC[C@H]4[C@H](C)CC[C@@H]([C@H]1C)[C@@]24OO3`, in series [7], the ED50 is 3.1 mg/kg and the ED90 came to 5.8 mg/kg.

As to `O=C1C(O)=C([C@H]2CC[C@H](c3ccc(Cl)cc3)CC2)C(=O)c2ccccc21` [ATOVAQUONE], the Activity in series [6] and in series [10] was 100% in each case. In addition, the ED50 in [7] is 0.07 mg/kg. For the same molecule, in series [7], the ED90 came to 0.11 mg/kg. For the same molecule, the IC50 in series [3] came out at 12000 nM.

In the case of `CCN(CC)CCCC(C)Nc1ccnc2cc(Cl)ccc12` (stereo unspecified) [CHLOROQUINE], in series [7], the ED50 was 3.3 mg/kg and the ED90 was 4.6 mg/kg.

Usually IC50 stands for the point on the concentration scale where inhibition reaches its midpoint. By Cmax is commonly meant the highest concentration seen after dosing. As a reminder, the AUC(0-t) is exposure summed from dosing to a finite time, without extrapolation to infinity. By ED50 is commonly meant the midpoint of the dose-response relation. One may read the CL/F as the apparent clearance, not corrected for the fraction that reaches the circulation. As usually defined, the CC50 is the concentration giving 50% cytotoxicity. One may read the half-life as the time needed for the level to fall by half in the phase considered. By Tmax is commonly meant the time from dosing to the highest level.
